In patent US20090197947A1, “MEDICAMENTS AND METHODS FOR LOWERING PLASMA LIPID LEVELS AND SCREENING DRUGS” (The Research Foundation of State University of New York, priority 2008, published 2009):

Experiments:
[1] = test system: liver microsomes
[2] = Effect of efflux enhancer and cholesterol biosynthesis inhibitor on plasma lipids and liver function enzymes in PBS and pIpC injected animals; type: in vivo, mice; conditions: 50 mg/Kg oral gavage every day for 2 weeks; for plasma cholesterol levels / plasma triglyceride levels: MTP gene deleted (pIpC injected) mice
Text: In this Example, blood was collected from tail vein of animals on day 1 of the experiment and used to measure plasma lipid and liver function enzyme levels (Day 1, “Control”). Conditional MTP deletion was achieved by injecting pIpC three times in […] mice on alternate days. Control group mice (n=2) received either PBS (open bars) or pIpC (closed bars) injections. […] On day 8, blood was again collected to measure changes in plasma lipid and liver function enzyme levels. Mice were sacrificed on day 16 and plasma samples were then assayed for total cholesterol (A), triglyceride (B), ALT (C) and AST (D) levels. Each measurement was performed in triplicate. The asterisks show statistically significant differences between PBS and pIpC injected mice. (*, p<0.05, **, p<0.01, ***, p<0.001.)

[3] = Effect of efflux enhancer and cholesterol biosynthesis inhibitor on hepatic mRNA, MTP activity and lipid levels in PBS and pIpC injected animals; type: in vivo; conditions: liver of drug administered pIpC injected mice
Text: In this Example, total RNA was isolated from the liver of drug administered PBS and pIpC injected mice and used for quantitative RT-PCR of HMG-CoA reductase (FIG. 5, Panel A), ABCA1 (FIG. 5, Panel B), MTP (FIG. 5, Panel C) as well as ARPp0 mRNA. The ratio of candidate gene to ARPp0 in one PBS injected mice was used for normalization. Liver tissues were also used to measure MTP activity (FIG. 5, Panel D). In addition, triglyceride (FIG. 5, Panel E), total (FIG. 5, Panel F), Free (FIG. 5, Panel G) and Esterified (FIG. 5, Panel H) cholesterol levels were measured. (*, p<0.05, **, p<0.01, ***, p<0.001.)

[4] = test system: AC29 cells that do not express MTP but stably express ACAT1 or ACAT2; test: Cellular cholesteryl ester synthesis in AC29 cells that do not express MTP; type: cell-based; conditions: AC29 cells stably expressing ACAT1 or ACAT2
Procedure: Next, the effect of these inhibitors on cellular cholesteryl ester synthesis was examined. […] In these cells, MTP inhibitor BMS 197636 had no effect on cellular cholesteryl ester synthesis (FIG. 9, J and K). However, incubation of these cells with ACAT inhibitor 148817 reduced radio-labeled cholesteryl esters by 83-87% (FIG. 9, J, K).

[5] = test system: Caco-2 cells; test: Caco-2 cells treated with MTP and ACAT antagonists, alone or in combination; type: cell-based; parameters: inhibition of cellular esterification of [3H] cholesterol: dose or concentration left out as unconfirmed
Procedure: Thus, it was hypothesized that MTP (BMS 197636) and ACAT (1 488 17) antagonists would inhibit cellular esterification by independent mechanisms and their effect would be additive. To test this hypothesis, Caco-2 cells were treated with different amounts of these inhibitors, alone or in combination, and the inhibition was compared with cells that were not exposed to any inhibitors (FIG. 9, L-N). Increasing concentrations of BMS 197636 decreased apoB secretion (FIG. 9, L). In contrast, ACAT inhibitor had no effect on apoB secretion. […] ApoAI secretion was resistant to both the inhibitors (FIG. 9, M). […] These inhibitors in combination reduced cholesteryl ester synthesis by 45 +/−4% (FIG. 9, N). Thus, MTP and ACAT act in tandem and facilitate cellular cholesteryl esterification.

CCCCCCCCCCCCCCCC(=O)O[C@H]1CC[C@@]2(C)C(=CC[C@H]3[C@@H]4CC[C@H]([C@H](C)CCCC(C)C)[C@@]4(C)CC[C@@H]32)C1 [cholesteryl palmitate]
concentration up to which microsomes are enriched with cholesterol (saturation thereafter) ([1]; liver microsomes incubated 30 min, centrifuged): approximately 1.25 μM
inhibition of cholesteryl ester synthesis ([1]; liver microsomes, 0.5 μM cholesteryl palmitate): 32%

CC[C@H](C)C(=O)O[C@H]1C[C@@H](C)C=C2C=C[C@H](C)[C@H](CC[C@@H]3C[C@@H](O)CC(=O)O3)[C@H]21 [lovastatin, Lovastatin]
plasma cholesterol levels [2]: not significantly altered
plasma triglyceride levels [2]: not significantly altered
increase in plasma ALT levels due to MTP gene deletion ([2]; pIpC injected mice): not seen
increase in plasma AST levels due to MTP gene deletion ([2]; pIpC injected mice): not seen
increases in hepatic free cholesterol levels in MTP gene deleted animals [3]: reduced

O=S(=O)(c1ccccc1)N(CC(F)(F)F)c1ccc(C(O)(C(F)(F)F)C(F)(F)F)cc1 [T0901317]
plasma cholesterol levels [2]: not significantly altered
plasma triglyceride levels [2]: not significantly altered
increases in hepatic free cholesterol levels in MTP gene deleted animals [3]: reduced

CCCNC(=O)C1(CCCCN2CCC(N3Cc4ccccc4C3=O)CC2)c2ccccc2-c2ccccc21 [BMS 197636]
cellular cholesteryl ester synthesis [4]: no effect
ApoAI secretion [5]: resistant
apoB secretion ([5]; increasing concentrations, inhibitor alone): decreased
inhibition of cellular esterification of [3H] cholesterol ([5]; individually): 25 +/−2%
